The numbers were not newly measured in patent US20140010866A1, “METHODS AND SYSTEMS FOR TREATMENT OF MIGRAINES AND OTHER INDICATIONS” (Strategic Science & Technologies, LLC, priority 2010, published 2014), which cites them from elsewhere.

Turning to `CN(C)CCc1c[nH]c2ccc(CS(=O)(=O)N3CCCC3)cc12` [almotriptan], the pKa is recorded as 8.77.
On to `CC(C)C[C@H]1C(=O)N2CCC[C@H]2[C@]2(O)O[C@](NC(=O)[C@@H]3C=C4c5cccc6[nH]c(Br)c(c56)C[C@H]4N(C)C3)(C(C)C)C(=O)N12` [bromocriptine], for which the pKa was 11.13.
Take `CC(C)[C@H]1C(=O)N2CCC[C@H]2[C@]2(O)O[C@@](C)(NC(=O)[C@@H]3C=C4c5cccc6[nH]cc(c56)C[C@H]4N(C)C3)C(=O)N12` [ergovaline]: the pKa was 11.64.
On to `CN[C@@H]1CCc2[nH]c3ccc(C(N)=O)cc3c2C1` [frovatriptan], for which the pKa is listed as 17.27.
Take `CNS(=O)(=O)CCc1ccc2[nH]cc(C3CCN(C)CC3)c2c1` [naratriptan]: the pKa is recorded as 17.11.
With `CN(C)CCc1c[nH]c2ccc(C[C@H]3COC(=O)N3)cc12` [zolmitriptan], the pKa is listed as 17.15.
